In PubChem BioAssay (NCI):
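Assay format: 96-well plates, 48-hour exposure. GI50: concentration for 50% inhibition of growth. TGI: concentration producing complete growth inhibition.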

Legend:
Test in all cases: NCI-60 cell line screen, 48 h
786-0 renal = tested on: 786-0 renal
A498 renal = tested on: A498 renal
A549 NSCLC = tested on: A549 NSCLC
ACHN renal = tested on: ACHN renal
BT-549 breast = tested on: BT-549 breast
CAKI-1 renal = tested on: CAKI-1 renal
CCRF-CEM leukemia = tested on: CCRF-CEM leukemia
COLO 205 colon = tested on: COLO 205 colon
DU-145 prostate = tested on: DU-145 prostate
EKVX NSCLC = tested on: EKVX NSCLC
HCC-2998 colon = tested on: HCC-2998 colon
HCT-116 colon = tested on: HCT-116 colon
HCT-15 colon = tested on: HCT-15 colon
HL-60(TB) leukemia = tested on: HL-60(TB) leukemia
HOP-62 NSCLC = tested on: HOP-62 NSCLC
HOP-92 NSCLC = tested on: HOP-92 NSCLC
HS 578T breast = tested on: HS 578T breast
HT29 colon = tested on: HT29 colon
IGROV1 ovarian = tested on: IGROV1 ovarian
K-562 leukemia = tested on: K-562 leukemia
KM12 colon = tested on: KM12 colon
LOX IMVI melanoma = tested on: LOX IMVI melanoma
M14 melanoma = tested on: M14 melanoma
MALME-3M melanoma = tested on: MALME-3M melanoma
MCF7 breast = tested on: MCF7 breast
MDA-MB-231 breast = tested on: MDA-MB-231 breast
MDA-MB-435 = tested on: MDA-MB-435
NCI-H226 lung = tested on: NCI-H226 lung
NCI-H23 lung = tested on: NCI-H23 lung
NCI-H460 lung = tested on: NCI-H460 lung
NCI-H522 lung = tested on: NCI-H522 lung
NCI/ADR-RES ovarian = tested on: NCI/ADR-RES ovarian
OVCAR-3 ovarian = tested on: OVCAR-3 ovarian
OVCAR-4 ovarian = tested on: OVCAR-4 ovarian
OVCAR-5 ovarian = tested on: OVCAR-5 ovarian
OVCAR-8 ovarian = tested on: OVCAR-8 ovarian
PC-3 prostate = tested on: PC-3 prostate
RXF 393 renal = tested on: RXF 393 renal
SF-268 CNS = tested on: SF-268 CNS
SF-295 CNS = tested on: SF-295 CNS
SF-539 CNS = tested on: SF-539 CNS
SK-MEL-2 melanoma = tested on: SK-MEL-2 melanoma
SK-MEL-28 melanoma = tested on: SK-MEL-28 melanoma
SK-MEL-5 melanoma = tested on: SK-MEL-5 melanoma
SK-OV-3 ovarian = tested on: SK-OV-3 ovarian
SN12C renal = tested on: SN12C renal
SNB-19 CNS = tested on: SNB-19 CNS
SNB-75 CNS = tested on: SNB-75 CNS
SR leukemia = tested on: SR leukemia
SW-620 colon = tested on: SW-620 colon
T-47D breast = tested on: T-47D breast
TK-10 renal = tested on: TK-10 renal
U251 CNS = tested on: U251 CNS
UACC-257 melanoma = tested on: UACC-257 melanoma
UACC-62 melanoma = tested on: UACC-62 melanoma
UO-31 renal = tested on: UO-31 renal

For `COc1cc2nc(N3CCCC3)nc(NCC3CCCCC3)c2cc1OC`, the GI50 (786-0 renal) was 1470 nM, the TGI (786-0 renal) was 3110 nM and the GI50 (A498 renal) was 1110 nM. It also gave a TGI (A498 renal) of 2470 nM, a GI50 (A549 NSCLC) of 1520 nM and a TGI (A549 NSCLC) of 3250 nM. For the same compound, the GI50 (ACHN renal) was 1440 nM, the TGI (ACHN renal) was 2750 nM and the GI50 (BT-549 breast) was 1410 nM. It also gave a TGI (BT-549 breast) of 2780 nM, a GI50 (CAKI-1 renal) of 1340 nM and a TGI (CAKI-1 renal) of 2640 nM. The GI50 (CCRF-CEM leukemia) was 1090 nM, the TGI (CCRF-CEM leukemia) was 3500 nM and the GI50 (COLO 205 colon) was 223 nM. For the same compound, the TGI (COLO 205 colon) was 499 nM, the GI50 (DU-145 prostate) was 1510 nM and the TGI (DU-145 prostate) was 2920 nM. The GI50 (EKVX NSCLC) was 1450 nM, the TGI (EKVX NSCLC) was 2910 nM and the GI50 (HCC-2998 colon) was 444 nM. For the same compound, the TGI (HCC-2998 colon) was 1620 nM, the GI50 (HCT-116 colon) was 805 nM and the TGI (HCT-116 colon) was 2210 nM. For the same compound, the GI50 (HCT-15 colon) was 505 nM, the TGI (HCT-15 colon) was 1800 nM and the GI50 (HL-60(TB) leukemia) was 505 nM. It also gave a TGI (HL-60(TB) leukemia) of 2210 nM, a GI50 (HOP-62 NSCLC) of 1560 nM and a TGI (HOP-62 NSCLC) of 3200 nM. The GI50 (HOP-92 NSCLC) was 1110 nM, the TGI (HOP-92 NSCLC) was 2460 nM and the GI50 (HS 578T breast) was 1790 nM. For the same compound, the TGI (HS 578T breast) was 3710 nM, the GI50 (HT29 colon) was 435 nM and the TGI (HT29 colon) was 1690 nM. For the same compound, the GI50 (IGROV1 ovarian) was 1480 nM, the TGI (IGROV1 ovarian) was 3060 nM and the GI50 (K-562 leukemia) was 334 nM. It also gave a TGI (K-562 leukemia) of 2100 nM, a GI50 (KM12 colon) of 1630 nM and a TGI (KM12 colon) of 3130 nM. The GI50 (LOX IMVI melanoma) was 281 nM, the TGI (LOX IMVI melanoma) was 793 nM and the GI50 (M14 melanoma) was 1440 nM. For the same compound, the TGI (M14 melanoma) was 2880 nM, the GI50 (MALME-3M melanoma) was 1240 nM and the TGI (MALME-3M melanoma) was 2550 nM. For the same compound, the GI50 (MCF7 breast) was 515 nM, the TGI (MCF7 breast) was 2030 nM and the GI50 (MDA-MB-231 breast) was 1530 nM. For the same compound, the TGI (MDA-MB-231 breast) was 3040 nM, the GI50 (MDA-MB-435) was 1110 nM and the TGI (MDA-MB-435) was 2330 nM. It also gave a GI50 (NCI-H226 lung) of 1940 nM, a TGI (NCI-H226 lung) of 4050 nM and a GI50 (NCI-H23 lung) of 1570 nM. For the same compound, the TGI (NCI-H23 lung) was 3070 nM, the GI50 (NCI-H460 lung) was 1750 nM and the TGI (NCI-H460 lung) was 3350 nM. For the same compound, the GI50 (NCI-H522 lung) was 1560 nM, the TGI (NCI-H522 lung) was 3290 nM and the GI50 (NCI/ADR-RES ovarian) was 1510 nM. The TGI (NCI/ADR-RES ovarian) was 3470 nM, the GI50 (OVCAR-3 ovarian) was 1550 nM and the TGI (OVCAR-3 ovarian) was 2990 nM. The GI50 (OVCAR-4 ovarian) was 1250 nM, the TGI (OVCAR-4 ovarian) was 2710 nM and the GI50 (OVCAR-5 ovarian) was 1590 nM. The TGI (OVCAR-5 ovarian) was 2960 nM, the GI50 (OVCAR-8 ovarian) was 1590 nM and the TGI (OVCAR-8 ovarian) was 3520 nM. The GI50 (PC-3 prostate) was 1130 nM, the TGI (PC-3 prostate) was 2830 nM and the GI50 (RXF 393 renal) was 1070 nM. It also gave a TGI (RXF 393 renal) of 2490 nM, a GI50 (SF-268 CNS) of 1750 nM and a TGI (SF-268 CNS) of 3450 nM. For the same compound, the GI50 (SF-295 CNS) was 1380 nM, the TGI (SF-295 CNS) was 2710 nM and the GI50 (SF-539 CNS) was 817 nM. For the same compound, the TGI (SF-539 CNS) was 2150 nM, the GI50 (SK-MEL-2 melanoma) was 1860 nM and the TGI (SK-MEL-2 melanoma) was 3510 nM. The GI50 (SK-MEL-28 melanoma) was 1550 nM, the TGI (SK-MEL-28 melanoma) was 2910 nM and the GI50 (SK-MEL-5 melanoma) was 1350 nM. The TGI (SK-MEL-5 melanoma) was 2680 nM, the GI50 (SK-OV-3 ovarian) was 1750 nM and the TGI (SK-OV-3 ovarian) was 3240 nM. The GI50 (SN12C renal) was 1480 nM, the TGI (SN12C renal) was 2910 nM and the GI50 (SNB-19 CNS) was 1590 nM. The TGI (SNB-19 CNS) was 2990 nM, the GI50 (SNB-75 CNS) was 1470 nM and the TGI (SNB-75 CNS) was 2810 nM. The GI50 (SR leukemia) was 254 nM, the TGI (SR leukemia) was 1080 nM and the GI50 (SW-620 colon) was 1390 nM. The TGI (SW-620 colon) was 2890 nM, the GI50 (T-47D breast) was 1450 nM and the TGI (T-47D breast) was 3510 nM. The GI50 (TK-10 renal) was 1730 nM, the TGI (TK-10 renal) was 3280 nM and the GI50 (U251 CNS) was 1210 nM. It also gave a TGI (U251 CNS) of 2640 nM, a GI50 (UACC-257 melanoma) of 364 nM and a TGI (UACC-257 melanoma) of 1360 nM. The GI50 (UACC-62 melanoma) was 1740 nM, the TGI (UACC-62 melanoma) was 3210 nM and the GI50 (UO-31 renal) was 1100 nM. It also gave a TGI (UO-31 renal) of 2380 nM.
